Measurements taken from ChEMBL document CHEMBL5291721, “A preclinical secondary pharmacology resource illuminates target-adverse drug reaction associations of marketed drugs” (Nat Commun, 2023).
Several values for one entry are separate records, joined by “and”; a condition that tells them apart may be missing. Identical values can stand only once.

How the values were obtained:
Cannabinoid receptor 1 = Cannabinoid receptor 1 (Homo sapiens, UniProt P21554); type: functional, cell-based
[1] = target: T1, Gastrin/cholecystokinin type B receptor (Homo sapiens, UniProt P32239)
T1 sequence (P32239 whole entry): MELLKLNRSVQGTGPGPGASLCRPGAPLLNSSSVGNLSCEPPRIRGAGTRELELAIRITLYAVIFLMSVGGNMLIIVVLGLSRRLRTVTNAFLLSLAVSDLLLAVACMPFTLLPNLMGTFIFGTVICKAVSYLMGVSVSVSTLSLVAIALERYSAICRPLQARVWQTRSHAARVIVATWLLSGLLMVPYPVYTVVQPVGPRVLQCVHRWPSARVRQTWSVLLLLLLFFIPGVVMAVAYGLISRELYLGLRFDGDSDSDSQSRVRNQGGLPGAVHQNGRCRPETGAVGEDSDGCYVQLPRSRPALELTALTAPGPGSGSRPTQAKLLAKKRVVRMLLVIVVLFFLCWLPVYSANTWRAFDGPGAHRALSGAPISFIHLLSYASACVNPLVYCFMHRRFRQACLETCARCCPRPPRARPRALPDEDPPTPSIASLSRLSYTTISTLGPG

[2] = target: T2, Muscarinic acetylcholine receptor M2 (Homo sapiens, UniProt P08172); type: functional, cell-based
T2 sequence (P08172 whole entry): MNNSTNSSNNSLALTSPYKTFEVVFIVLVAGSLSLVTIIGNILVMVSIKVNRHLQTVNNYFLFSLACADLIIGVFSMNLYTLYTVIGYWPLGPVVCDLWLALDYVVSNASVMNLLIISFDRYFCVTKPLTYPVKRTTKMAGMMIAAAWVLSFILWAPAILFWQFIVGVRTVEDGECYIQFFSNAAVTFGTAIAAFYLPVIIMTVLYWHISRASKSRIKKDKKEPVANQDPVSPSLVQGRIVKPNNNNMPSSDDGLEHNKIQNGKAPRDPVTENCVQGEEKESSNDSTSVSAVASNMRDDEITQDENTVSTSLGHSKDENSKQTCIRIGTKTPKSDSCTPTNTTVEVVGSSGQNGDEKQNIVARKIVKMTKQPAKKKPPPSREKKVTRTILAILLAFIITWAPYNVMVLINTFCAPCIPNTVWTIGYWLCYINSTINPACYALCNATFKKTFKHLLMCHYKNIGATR

[3] = target: cGMP-inhibited 3',5'-cyclic phosphodiesterase 3A (Homo sapiens, UniProt Q14432); type: functional
[4] = target: T3, Alpha-2A adrenergic receptor (Homo sapiens, UniProt P08913); type: functional, cell-based
T3 sequence (P08913 whole entry): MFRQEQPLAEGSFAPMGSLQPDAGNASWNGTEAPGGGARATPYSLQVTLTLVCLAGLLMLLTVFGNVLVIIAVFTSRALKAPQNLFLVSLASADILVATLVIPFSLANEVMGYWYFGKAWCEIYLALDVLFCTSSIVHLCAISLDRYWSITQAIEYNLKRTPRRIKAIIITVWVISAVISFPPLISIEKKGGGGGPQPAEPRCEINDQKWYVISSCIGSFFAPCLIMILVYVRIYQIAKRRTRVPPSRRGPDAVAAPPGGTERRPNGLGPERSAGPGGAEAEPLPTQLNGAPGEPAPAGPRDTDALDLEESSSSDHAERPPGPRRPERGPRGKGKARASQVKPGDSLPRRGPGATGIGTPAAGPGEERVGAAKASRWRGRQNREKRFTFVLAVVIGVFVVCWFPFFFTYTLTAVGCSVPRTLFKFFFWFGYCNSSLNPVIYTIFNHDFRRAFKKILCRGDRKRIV

[5] = target: T4, 5-hydroxytryptamine receptor 3A (Homo sapiens, UniProt P46098); type: functional
T4 sequence (P46098 whole entry): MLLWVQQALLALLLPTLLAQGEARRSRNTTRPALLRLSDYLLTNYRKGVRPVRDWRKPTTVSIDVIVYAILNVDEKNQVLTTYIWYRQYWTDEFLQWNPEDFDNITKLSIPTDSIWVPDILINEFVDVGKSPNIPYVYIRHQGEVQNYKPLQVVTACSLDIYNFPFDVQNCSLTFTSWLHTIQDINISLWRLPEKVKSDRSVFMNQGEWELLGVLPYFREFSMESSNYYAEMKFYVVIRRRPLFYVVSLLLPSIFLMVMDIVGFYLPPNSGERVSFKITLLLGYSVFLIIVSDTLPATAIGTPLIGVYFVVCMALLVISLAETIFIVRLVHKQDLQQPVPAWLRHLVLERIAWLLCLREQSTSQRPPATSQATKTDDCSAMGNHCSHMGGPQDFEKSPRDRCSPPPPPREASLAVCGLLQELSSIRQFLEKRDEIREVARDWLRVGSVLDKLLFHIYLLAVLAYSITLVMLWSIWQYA

[6] = target: T5, 5-hydroxytryptamine receptor 1A (Homo sapiens, UniProt P08908); type: functional, cell-based
T5 sequence (P08908 whole entry): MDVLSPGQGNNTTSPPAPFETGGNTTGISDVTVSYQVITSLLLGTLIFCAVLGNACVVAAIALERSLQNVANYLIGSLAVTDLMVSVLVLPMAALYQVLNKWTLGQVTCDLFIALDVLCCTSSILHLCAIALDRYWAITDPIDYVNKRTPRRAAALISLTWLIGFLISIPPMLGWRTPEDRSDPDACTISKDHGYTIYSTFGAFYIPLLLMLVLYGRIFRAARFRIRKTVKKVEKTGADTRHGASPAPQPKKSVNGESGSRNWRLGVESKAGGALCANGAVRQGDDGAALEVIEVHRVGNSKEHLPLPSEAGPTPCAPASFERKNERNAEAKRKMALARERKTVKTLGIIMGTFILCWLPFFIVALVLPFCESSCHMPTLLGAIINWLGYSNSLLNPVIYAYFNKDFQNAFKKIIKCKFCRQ

Histamine H3 receptor = Histamine H3 receptor (Homo sapiens, UniProt Q9Y5N1)
Also: assay procedure not described here.

Chain of cGMP-inhibited 3',5'-cyclic phosphodiesterase 3A (Q14432 whole entry): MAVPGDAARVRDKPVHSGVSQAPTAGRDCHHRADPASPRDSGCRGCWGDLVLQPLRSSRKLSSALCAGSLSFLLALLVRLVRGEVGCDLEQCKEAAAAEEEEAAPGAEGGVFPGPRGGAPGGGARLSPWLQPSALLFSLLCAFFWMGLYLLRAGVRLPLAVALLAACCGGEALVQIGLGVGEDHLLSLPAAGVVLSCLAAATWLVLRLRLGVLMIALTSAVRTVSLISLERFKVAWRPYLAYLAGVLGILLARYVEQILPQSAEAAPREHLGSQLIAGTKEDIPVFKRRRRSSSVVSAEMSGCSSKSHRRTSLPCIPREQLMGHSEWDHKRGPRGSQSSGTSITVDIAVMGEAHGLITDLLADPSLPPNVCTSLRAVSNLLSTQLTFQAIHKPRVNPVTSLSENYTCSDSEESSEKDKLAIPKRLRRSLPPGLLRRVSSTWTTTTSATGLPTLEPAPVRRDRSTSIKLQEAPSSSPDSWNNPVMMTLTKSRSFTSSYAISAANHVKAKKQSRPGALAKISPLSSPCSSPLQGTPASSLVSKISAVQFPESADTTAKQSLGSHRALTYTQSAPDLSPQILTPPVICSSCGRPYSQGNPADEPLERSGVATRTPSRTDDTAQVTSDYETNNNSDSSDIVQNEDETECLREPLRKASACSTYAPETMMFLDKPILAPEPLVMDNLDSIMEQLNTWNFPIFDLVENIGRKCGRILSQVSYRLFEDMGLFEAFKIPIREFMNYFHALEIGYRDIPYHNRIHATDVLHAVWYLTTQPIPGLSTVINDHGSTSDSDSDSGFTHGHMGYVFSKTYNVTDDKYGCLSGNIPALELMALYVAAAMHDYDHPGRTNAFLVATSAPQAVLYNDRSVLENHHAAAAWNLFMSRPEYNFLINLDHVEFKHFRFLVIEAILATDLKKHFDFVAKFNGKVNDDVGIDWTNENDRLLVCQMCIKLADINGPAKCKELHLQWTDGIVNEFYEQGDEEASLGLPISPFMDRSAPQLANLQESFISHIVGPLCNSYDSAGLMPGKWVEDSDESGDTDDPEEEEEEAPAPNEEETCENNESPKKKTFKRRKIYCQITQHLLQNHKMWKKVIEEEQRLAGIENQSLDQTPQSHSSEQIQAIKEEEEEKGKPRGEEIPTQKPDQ
Chain of Cannabinoid receptor 1 (P21554 whole entry): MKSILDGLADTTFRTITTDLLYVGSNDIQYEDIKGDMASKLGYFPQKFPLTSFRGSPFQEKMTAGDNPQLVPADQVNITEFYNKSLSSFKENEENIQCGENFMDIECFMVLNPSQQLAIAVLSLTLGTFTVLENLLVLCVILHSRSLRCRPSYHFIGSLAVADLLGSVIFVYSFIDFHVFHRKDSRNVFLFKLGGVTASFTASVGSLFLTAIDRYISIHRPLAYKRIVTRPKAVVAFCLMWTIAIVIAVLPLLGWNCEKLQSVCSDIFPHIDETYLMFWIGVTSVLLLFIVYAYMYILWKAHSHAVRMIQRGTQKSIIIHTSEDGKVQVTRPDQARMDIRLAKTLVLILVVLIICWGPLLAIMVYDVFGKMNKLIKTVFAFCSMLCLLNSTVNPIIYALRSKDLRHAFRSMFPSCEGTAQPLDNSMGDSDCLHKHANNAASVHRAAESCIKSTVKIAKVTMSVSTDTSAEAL
Chain of Histamine H3 receptor (Q9Y5N1 whole entry): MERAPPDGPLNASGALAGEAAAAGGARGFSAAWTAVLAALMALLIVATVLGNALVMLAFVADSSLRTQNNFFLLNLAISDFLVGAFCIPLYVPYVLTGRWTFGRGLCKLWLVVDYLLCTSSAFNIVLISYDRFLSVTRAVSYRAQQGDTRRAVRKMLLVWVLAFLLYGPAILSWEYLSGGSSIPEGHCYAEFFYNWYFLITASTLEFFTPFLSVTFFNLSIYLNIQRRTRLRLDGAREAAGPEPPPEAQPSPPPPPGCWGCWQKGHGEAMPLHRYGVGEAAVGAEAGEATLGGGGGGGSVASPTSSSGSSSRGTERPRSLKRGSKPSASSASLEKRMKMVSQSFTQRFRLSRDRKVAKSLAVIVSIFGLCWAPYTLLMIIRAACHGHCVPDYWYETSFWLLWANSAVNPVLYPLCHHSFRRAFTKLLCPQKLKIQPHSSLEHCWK

Compound | AC50 (Cannabinoid receptor 1) | AC50 [1] | AC50 [2] | AC50 [3] | AC50 [4] | AC50 [5] | AC50 [6] | AC50 (Histamine H3 receptor)
CO[C@H]1/C=C/O[C@@]2(C)Oc3c(C)c(O)c4c(O)c(c(/C=N/N5CCN(C)CC5)c(O)c4c3C2=O)NC(=O)/C(C)=C\C=C\[C@H](C)[C@H](O)[C@@H](C)[C@@H](O)[C@@H](C)[C@H](OC(C)=O)[C@@H]1C [RIFAMPIN] | > 30 µM | > 30 µM | > 10 µM | 18.3 µM | > 30 µM | 5.2 µM | > 10 µM | 25 µM
N[C@@H](CC(=O)N1CCn2c(nnc2C(F)(F)F)C1)Cc1cc(F)c(F)cc1F [SITAGLIPTIN] | > 30 µM | > 10 µM | > 30 µM | > 30 µM | > 30 µM | > 30 µM | > 30 µM | > 30 µM
CC(C)Cc1ccc(C(C)C(=O)O)cc1 (stereo unspecified) [IBUPROFEN] | > 30 µM | > 30 µM | > 10 µM | > 30 µM | > 10 µM | > 30 µM | > 10 µM | > 10 µM
COc1cc2nc(N3CCN(C(=O)C4CCCO4)CC3)nc(N)c2cc1OC (stereo unspecified) [TERAZOSIN] | > 30 µM | > 30 µM | > 10 µM | > 30 µM | > 30 µM | > 10 µM | > 10 µM | > 10 µM
CC(C)N(CCC(C(N)=O)(c1ccccc1)c1ccccn1)C(C)C (stereo unspecified) [DISOPYRAMIDE] | > 30 µM | > 30 µM | > 10 µM | 5.4 µM | > 10 µM | > 30 µM | > 10 µM | > 30 µM
CN(C)CCC[C@@]1(c2ccc(F)cc2)OCc2cc(C#N)ccc21 [ESCITALOPRAM] | > 30 µM | > 30 µM |  | > 30 µM | > 30 µM | > 30 µM | > 30 µM | > 30 µM
Nc1ccc(S(=O)(=O)Nc2nccs2)cc1 [SULFATHIAZOLE] | > 30 µM | > 30 µM | > 10 µM | > 30 µM | > 10 µM | > 30 µM | > 10 µM | > 10 µM
C=CC[C@@H]1/C=C(\C)C[C@H](C)C[C@H](OC)[C@H]2O[C@@](O)(C(=O)C(=O)N3CCCC[C@H]3C(=O)O[C@H](/C(C)=C/[C@@H]3CC[C@@H](O)[C@H](OC)C3)[C@H](C)[C@@H](O)CC1=O)[C@H](C)C[C@@H]2OC [TACROLIMUS ANHYDROUS] | > 30 µM | > 30 µM | > 10 µM | > 30 µM | 7.2 µM and > 10 µM | > 30 µM | > 30 µM | > 30 µM
COc1ccccc1Oc1c(NS(=O)(=O)c2ccc(C(C)(C)C)cc2)nc(-c2ncccn2)nc1OCCO [BOSENTAN] | > 30 µM | > 30 µM | > 10 µM | > 30 µM | > 10 µM | > 30 µM | > 10 µM | > 10 µM
Cc1onc(-c2ccccc2)c1-c1ccc(S(N)(=O)=O)cc1 [VALDECOXIB] | > 30 µM | > 30 µM | > 10 µM | > 30 µM | > 10 µM | > 30 µM | > 10 µM | > 30 µM
CC(C)c1nc(N(C)S(C)(=O)=O)nc(-c2ccc(F)cc2)c1/C=C/[C@@H](O)C[C@@H](O)CC(=O)O [ROSUVASTATIN] | > 30 µM | > 30 µM | > 30 µM | > 30 µM | > 30 µM | > 30 µM | > 30 µM | > 30 µM
C[C@H]1c2cccc(O)c2C(=O)C2=C(O)[C@]3(O)C(=O)C(C(N)=O)=C(O)[C@@H](N(C)C)[C@@H]3[C@@H](O)[C@@H]21 [DOXYCYCLINE] | > 30 µM | > 30 µM | > 10 µM | > 30 µM | > 10 µM | > 30 µM | > 10 µM | > 10 µM
CN(C)CC[C@@H](c1ccc(Cl)cc1)c1ccccn1 [DEXCHLORPHENIRAMINE] | > 30 µM | > 30 µM | 26 µM | > 10 µM | > 30 µM | > 30 µM | 22 µM | 6.3 µM
OC[C@H]1O[C@@](CO)(O[C@H]2O[C@H](CO)[C@@H](O)[C@H](O)[C@H]2O)[C@@H](O)[C@@H]1O [SUCROSE] | > 30 µM | > 30 µM | > 30 µM | > 30 µM | > 30 µM | > 30 µM | > 30 µM | > 30 µM
